Results published in patent publication US20250340848A1, “METHODS FOR CHEMICAL REPROGRAMMING AND PLURIPOTENT STEM CELLS” (Peking University, priority 2022, published 2025).

What was measured:
hADSC = experiment: Chemical reprogramming of hADSC per Example 6A, OCT4-positive hCiPSC clones; assay type: cell-based, human
Experimental: In short, hADSC or hASF are seeded at 1×10^4 cells/well in a 12-well plate, or at 0.5-0.6×10^4 cells/well in a 24-well plate, and cultured overnight. The next day, the medium is replaced with Stage I induction medium (Knockout DMEM supplemented with 2% B27 supplement, 1% KSR, 1% GlutaMAX, 1% NEAA, 1% penicillin-streptomycin, […] Vc2p, 5 mM LiCl, 1 mM NAM, 20 ng/mL BMP4, 5 μM CHIR999021, 10 μM 616452, 2 μM TTNPB, 0.5 μM SAG, 2 μM EPZ5676, 0.05 μM DZNep, 1 μM ruxolitinib, 0.5 μM VTP50469, 1 μM HY-10249A (CAS No. 842148-40-7), 0.2 μM JNKIN8, and 0.2 μM SETD2-IN-1), and cultured under hypoxic conditions (5% 02) until a monolayer of epithelial-like cells appears and reaches approximately 100% confluence. hADSC cells typically require 8-10 days, and hASFs typically require 9-16 days. […]
OCT4 immunofluorescent staining is performed on the obtained hCiPSC clones, with OCT4 positivity serving as an indicator of hCiPSC clones. The reprogramming efficiency of the method is calculated by dividing the number of OCT4-positive clones by the number of initial hADSC or hASFs plated. […]

[1] = test system: cellular retinoic acid binding protein (CRABP); conditions: cited from earlier work

With `CCc1c(C#N)c(SC(C(N)=O)c2ccccc2)nc(N2CCC(N)CC2)c1C#N` (stereo not drawn) [GSK3685032] the “transformation into pluripotent stem cells vs control” value (hADSC; 6+4+8, added to Stage II induction medium (RA 5 μM, GSK3685032 0.02 μM), FIG. 29) was “significantly improve the transformation of LIN28A-positive monolayer epithelial-like cells into pluripotent stem cells”.
With `O=C(NNS(=O)(=O)c1ccccc1F)c1cc(F)cc(-c2ccccn2)c1` [WM1119] the transformation efficiency (hADSC; 8+4+8 culture method, HATi 0.5 μM in stage I induction medium, FIG. 27A) was “about 2.4%”.
In the case of `CC(C)(C)c1cc(C(=O)/C=C/c2ccc(C(=O)O)cc2)cc(C(C)(C)C)c1` [Ch 55, 4-[(1E)-3-[3,5-bis(1,1-Dimethylethyl)phenyl]-3-oxo-1-propenyl]benzoic acid], the “affinity for cellular retinoic acid binding protein (CRABP)” value [1] is listed as “low affinity”.
